According to PubChem BioAssay (NCI):
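All cell lines were grown in 96-well plates and treated with compound for 48 hours. The concentration for 50% growth inhibition is given as GI50. TGI marks complete inhibition of growth.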

Key:
Assay in all cases: NCI tumour cell line growth inhibition, 48 h
SNB-75 CNS = test system: SNB-75 CNS
K-562 leukemia = test system: K-562 leukemia
DU-145 prostate = test system: DU-145 prostate
UACC-257 melanoma = test system: UACC-257 melanoma
HCT-15 colon = test system: HCT-15 colon
A549 NSCLC = test system: A549 NSCLC
MOLT-4 leukemia = test system: MOLT-4 leukemia
OVCAR-4 ovarian = test system: OVCAR-4 ovarian
SK-MEL-28 melanoma = test system: SK-MEL-28 melanoma
HS 578T breast = test system: HS 578T breast

Compound	GI50 (SNB-75 CNS)	TGI (SNB-75 CNS)	GI50 (K-562 leukemia)	TGI (K-562 leukemia)	GI50 (DU-145 prostate)	TGI (DU-145 prostate)	GI50 (UACC-257 melanoma)	TGI (UACC-257 melanoma)	GI50 (HCT-15 colon)	TGI (HCT-15 colon)	GI50 (A549 NSCLC)	TGI (A549 NSCLC)	GI50 (MOLT-4 leukemia)	TGI (MOLT-4 leukemia)	GI50 (OVCAR-4 ovarian)	TGI (OVCAR-4 ovarian)	GI50 (SK-MEL-28 melanoma)	TGI (SK-MEL-28 melanoma)	GI50 (HS 578T breast)	TGI (HS 578T breast)
COc1ccc(Nc2ncccc2C(=O)NCc2cn(Cc3cccc(Oc4ccccc4)c3)nn2)cc1	3.09 µM	> 100 µM	3.48 µM	> 100 µM	3.76 µM	> 100 µM	4.82 µM	> 100 µM	3.93 µM	> 100 µM	3.44 µM	> 100 µM	2.91 µM	> 100 µM	5.19 µM	> 100 µM	3.88 µM	> 100 µM	5.9 µM	> 100 µM
Cc1ccccc1/C=C1\CN(C(=O)OC(C)(C)C)C/C(=C\c2ccccc2C)C1=O	2.71 µM	9.34 µM	2.86 µM	> 100 µM	2.37 µM	5.52 µM	3.12 µM	9.92 µM	2.1 µM	5.76 µM	2.82 µM	9.17 µM	2.9 µM	21.8 µM	2.6 µM	14.1 µM	2.8 µM	6.43 µM	3.99 µM	83.1 µM
Cc1nc2cc(N)c(Cl)cc2[nH]1	–	> 100 µM	–	> 100 µM	–	> 100 µM	–	> 100 µM	–	> 100 µM	–	> 100 µM	–	> 100 µM	–	–	–	> 100 µM	–	> 100 µM
C=C(CN1CCN(c2cccc(F)c2)CC1)c1ccc(C(=O)Nc2ccccc2N)cc1	0.492 µM	6.24 µM	0.706 µM	13.4 µM	1.8 µM	7.16 µM	8.19 µM	47.5 µM	1.02 µM	> 100 µM	3.24 µM	16.3 µM	0.315 µM	2.76 µM	3.35 µM	33.9 µM	0.676 µM	38.6 µM	2.61 µM	> 100 µM
CCc1ccc(Nc2cc(C)nc3nc(C)nn23)cc1	35.6 µM	> 100 µM	35.5 µM	> 100 µM	35.1 µM	> 100 µM	> 100 µM	> 100 µM	32.8 µM	> 100 µM	45.4 µM	> 100 µM	33.3 µM	> 100 µM	27.7 µM	> 100 µM	48.8 µM	> 100 µM	39.3 µM	> 100 µM
Cc1ccc(NC(=O)c2nc(S(C)=O)oc2-c2ccc(F)cc2)cc1Nc1nccc(-c2cccnc2)n1 (stereo not drawn)	2.31 µM	5.43 µM	0.454 µM	3.3 µM	1.91 µM	3.75 µM	2.72 µM	7.74 µM	–	–	5.15 µM	17.3 µM	2.17 µM	6.82 µM	3.16 µM	9 µM	1.95 µM	3.97 µM	2.96 µM	8.94 µM
COC(=O)C1C2CCCN2OC1(C)CO (stereo not drawn)	–	> 100 µM	–	> 100 µM	–	> 100 µM	–	> 100 µM	–	> 100 µM	–	> 100 µM	–	> 100 µM	–	> 100 µM	–	> 100 µM	–	> 100 µM
COc1cc(NC(N)=NCCC(C)(C)c2ccc(C(F)(F)F)cc2)ncc1C#N	1.66 µM	3.26 µM	1.42 µM	5.02 µM	1.93 µM	3.51 µM	1.77 µM	3.32 µM	1.53 µM	2.9 µM	1.61 µM	3.06 µM	1.84 µM	5.25 µM	1.82 µM	4.12 µM	2.01 µM	3.52 µM	2.14 µM	4.55 µM
O=CC1(C2(C=O)c3ccccc3-c3ccccc32)c2ccccc2-c2ccccc21	3.29 µM	8.08 µM	2.3 µM	> 22.6 µM	2.29 µM	5.83 µM	2.16 µM	5.29 µM	1.68 µM	3.66 µM	–	–	1.38 µM	3.33 µM	2.02 µM	5.26 µM	1.72 µM	3.38 µM	2.7 µM	7.49 µM
CNC1C(OC2C(OC3C(O)C(O)C(O)C(O)C3O)OC(C)C2(O)CO)OC(CO)C(O)C1O (stereo not drawn) (tested in a mixture with another compound)	–	> 100 µM	–	> 100 µM	–	> 100 µM	–	> 100 µM	–	> 100 µM	–	> 100 µM	–	> 100 µM	–	> 100 µM	–	> 100 µM	–	> 100 µM
Cc1nn(-c2ccc(Br)cc2)c(C)c1CC(=O)c1cc(O)ccc1O	10.8 µM	31.1 µM	3.02 µM	29.5 µM	14.8 µM	44.6 µM	11.2 µM	26.6 µM	4.61 µM	15.8 µM	10.5 µM	20.7 µM	3.26 µM	> 50 µM	15.9 µM	> 50 µM	12.6 µM	47.5 µM	22.7 µM	> 50 µM
CCCCCCCCCC(CCCC(O)CC(=O)O)OC1OC(COC2OC(C)C(O)C(O)C2O)C(O)C(O)C1OC1OC(CO)C(O)C(O)C1OC1OC(C)C(O)C(O)C1O (stereo not drawn)	> 40 µM	> 40 µM	> 40 µM	> 40 µM	> 40 µM	> 40 µM	> 40 µM	> 40 µM	> 40 µM	> 40 µM	> 40 µM	> 40 µM	> 40 µM	> 40 µM	> 40 µM	> 40 µM	> 40 µM	> 40 µM	> 40 µM	> 40 µM
O=C(CN1CCN(c2ccc(Cl)cc2)CC1)N1CCN(c2nnc(-c3ccccc3)c(-c3ccccc3)n2)CC1	7.56 µM	> 100 µM	5.91 µM	> 100 µM	> 100 µM	> 100 µM	26.6 µM	> 100 µM	5.12 µM	> 100 µM	28.6 µM	> 100 µM	2.41 µM	> 100 µM	1.75 µM	> 100 µM	–	–	51.6 µM	> 100 µM
